Assay results taken from patent publication US11814364B2, “Pyridine N-oxide derivatives useful as factor XIa inhibitors” (Janssen Pharmaceutica NV, priority 2021, dated 2023).

Target: human plasma kallikrein (Homo sapiens, UniProt P03952)
Assay: Kallikrein inhibition FLINT assay with quenched AMC peptide substrate Z-Gly-Pro-Arg-AMC (end point EP or kinetic KIN reads)
Assay type: biochemical
Conditions: kinetic reads at 5 min intervals over 30 min; read-out: Kallikrein (KIN) IC50
Protocol: A fluorescence intensity (FLINT) based assay was used to monitor inhibition of human plasma kallikrein.
The Kallikrein FLINT assay was used with the following Z-Gly-Pro-Arg-AMC assay buffer: 50 mM Tris, pH 7.5, 100 mM NaCl, 5 mM CaCl2, 0.1 mg/mL BSA, 0.03% CHAPS. Assay buffer was prepared by mixing all ingredients fresh. 2× Z-Gly-Pro-Arg-AMC peptide substrate was prepared by diluting 10 mM stock into 1× assay buffer for a 100 μM working concentration (50 μM final concentration).
Test compound(s) were run in an 11-point, 3-fold serial dilution with a final top compound concentration of 1 μM. Final DMSO in assay was 2%. Plasma kallikrein was pre-incubated for 30-minute with compound and then 50 μM substrate was added to initiate the reaction. The assay was run with either end point (EP) reads at 30 min or kinetic (KIN) reads at 5 min intervals over 30 minutes.
Percent inhibition (IC50) curves were generated per compound tested, and data was analyzed using a 4-parameter logistic fit using GeneData Screener. The relative fluorescence unit (RFU) values were normalized to percent inhibition using the following equation: % inhibition=((HC−LC)−(compound−LC)/(HC−LC))*100
An 11-point dose response curve for the test compound(s) was generated using GENDATA to determine IC50 value based on the following equation: Y=Bottom+(Top−Bottom)/(1+10^((log IC50−X)*HillSlope))
Results listed in columns with […] designation were measured using endpoint reads where a single fluorescence reading was measured for each well at a 30 min timepoint.

Sequence of human plasma kallikrein (P03952 391-638 limits assumed): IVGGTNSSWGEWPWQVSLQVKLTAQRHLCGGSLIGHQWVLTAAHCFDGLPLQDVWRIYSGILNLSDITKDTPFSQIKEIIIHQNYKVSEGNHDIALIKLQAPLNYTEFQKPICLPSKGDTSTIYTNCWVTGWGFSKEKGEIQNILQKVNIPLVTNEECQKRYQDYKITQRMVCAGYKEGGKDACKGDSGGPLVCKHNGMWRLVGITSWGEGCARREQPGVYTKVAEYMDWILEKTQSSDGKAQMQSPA
Sequence of human plasma kallikrein (P03952 20-390 partner limits assumed): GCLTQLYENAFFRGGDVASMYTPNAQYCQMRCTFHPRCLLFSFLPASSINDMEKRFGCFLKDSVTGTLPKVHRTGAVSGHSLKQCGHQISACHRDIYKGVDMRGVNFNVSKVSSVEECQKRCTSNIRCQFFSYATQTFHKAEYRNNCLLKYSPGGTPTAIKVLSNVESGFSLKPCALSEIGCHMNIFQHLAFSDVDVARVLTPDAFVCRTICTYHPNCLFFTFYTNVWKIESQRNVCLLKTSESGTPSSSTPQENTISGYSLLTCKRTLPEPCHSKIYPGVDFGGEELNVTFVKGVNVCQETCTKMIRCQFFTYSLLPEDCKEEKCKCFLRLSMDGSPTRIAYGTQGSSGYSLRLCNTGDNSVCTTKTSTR

Row | IC50 [nM] | Structure (SMILES)
1 | 36.3 | [O-][n+]1cc(-c2c(-n3cnnn3)ccc(Cl)c2F)ccc1C(Cn1ccc(C2CCOCC2)n1)n1cc(-c2ccnc(C(F)(F)F)c2)cn1 (centres unmarked) [Example P419]
2 | 617 | O=C(C1CC1CC(c1ccc(-c2c(-n3cnnn3)ccc(Cl)c2F)c[n+]1[O-])n1cc(-c2ccncc2)cn1)N1CCCCC1 (centres unmarked) [Example P252]
3 | 179 | COC(=O)Nc1ccc(-c2cnn(C(CC(C)C)c3ccc(-c4c(-n5cnnn5)ccc(Cl)c4F)c[n+]3[O-])c2)cc1 (centres unmarked) [Example P179]
4 | 513 | CCOC(=O)C1CC1CC(c1ccc(-c2cc(Cl)ccc2-n2cnnn2)c[n+]1[O-])n1cc(-c2ccc(C(=O)O)cc2)cn1 (centres unmarked) [Example P68]
5 | 128 | [O-][n+]1ccc(-c2cnn(C(Cn3cccn3)c3ccc(-c4c(-n5cnnn5)ccc(Cl)c4F)c[n+]3[O-])c2)nc1 (centres unmarked) [Example P320]
6 | 175 | CN(CC(c1ccc(-c2c(-n3cnnn3)ccc(Cl)c2F)c[n+]1[O-])n1cc(-c2cc[n+]([O-])cc2)cn1)C(=O)c1ccccc1 (centres unmarked) [Example P344]
7 | 7.6 | Cc1nnc(CC(c2ccc(-c3c(-n4cc(C(F)(F)F)nn4)ccc(Cl)c3F)c[n+]2[O-])n2cc(-c3ccc(C(N)=O)c(F)c3)cn2)o1 (centres unmarked) [Example P927]
8 | 3.4 | Cn1nncc1-c1cnn([C@H](Cc2ccc(F)cc2)c2ccc(-c3c(-n4cc(OC(F)F)nn4)ccc(Cl)c3F)c[n+]2[O-])c1 [Example P635]
9 | 588 | [O-][n+]1cc(-c2c(-n3cnnn3)ccc(Cl)c2F)ccc1[C@H](Cc1cn(C(F)F)nn1)n1cc(-c2ccnc(C(F)(F)F)c2)cn1 [Example P746]
10 | 260 | COC(=O)Nc1ccc(-c2cnn(C(CC3CCC(C)(C)CC3)c3ccc(-c4c(-n5cnnn5)ccc(Cl)c4F)c[n+]3[O-])c2)cc1 (centres unmarked) [Example P122]
11 | 184 | Cn1ncc(-c2cnn(C(CCOC(F)F)c3ccc(-c4c(-n5cnnn5)ccc(Cl)c4F)c[n+]3[O-])c2)cc1=O (centres unmarked) [Example P415]
12 | 514 | Cn1nc(C(F)(F)F)cc1-c1cnn(C(CC2CC2)c2ccc(-c3c(-n4cnnn4)ccc(Cl)c3F)c[n+]2[O-])c1 (centres unmarked) [Example P548]
13 | 29.5 | [O-][n+]1cc(-c2c(-n3cc(Cl)nn3)ccc(Cl)c2F)ccc1[C@@H](CCOC(F)F)n1cc(-c2ncnn2C(F)F)cn1 [Example P683]
14 | 12.2 | O=C(O)c1ccc(-c2cnn(C(Cc3ccc(Oc4ccccc4)cc3)c3ccc(-c4cc(Cl)ccc4-n4cnnn4)c[n+]3[O-])c2)cc1 (centres unmarked) [Example P147]
15 | 31.3 | NC(=O)c1ccc(-c2cnn(C(CCOC(F)F)c3ccc(-c4c(-n5cc(C(F)(F)F)nn5)ccc(Cl)c4F)c[n+]3[O-])c2)cc1F (centres unmarked) [Example P844]
16 | 582 | [O-][n+]1cc(-c2c(-n3cnnn3)ccc(Cl)c2F)ccc1C(Cc1ccc(F)cc1)n1cc(-c2nnn(C(F)F)c2Cl)cn1 (centres unmarked) [Example P610]
17 | 2.5 | O=C(O)c1ccc(-c2cnn(C(Cc3ccn(C(F)F)n3)c3ccc(-c4c(-n5cc(Cl)nn5)ccc(Cl)c4F)c[n+]3[O-])c2)cc1 (single isomer, unassigned) [Example P898]
18 | 658 | [O-][n+]1cc(-c2c(-n3cnnn3)ccc(Cl)c2F)ccc1C(CC1CC1)n1cc(-c2cnn(C(F)(F)F)c2)cn1 (centres unmarked) [Example P708]
19 | 86.1 | CCC(c1ccc(-c2c(-n3cnnn3)ccc(Cl)c2F)c[n+]1[O-])n1cc(-c2ccc(NC(=O)OC)cc2)cn1 (single isomer, unassigned) [Example P155]
20 | 2.3 | Cn1ccc(CC(c2ccc(-c3c(C(F)F)ccc(Cl)c3F)c[n+]2[O-])n2cc(-c3ccc(C(=O)O)cc3)cn2)n1 (centres unmarked) [Example Q49]
21 | 7.1 | COc1ccc(CC(c2ccc(-c3c(-n4cnnn4)ccc(Cl)c3F)c[n+]2[O-])n2cc(-c3ccn(C)c(=O)c3)cn2)cc1 (centres unmarked) [Example P134]
22 | 0.9 | NC(=O)c1ccc(-c2cnn(C(CCOC(F)F)c3ccc(-c4c(-n5cnnn5)ccc(Cl)c4F)c[n+]3[O-])c2)cc1F (single isomer, unassigned) [Example P928]
23 | 29 | [O-][n+]1ccc(-c2cnn(C(Cn3cccn3)c3ccc(-c4c(-n5cnnn5)ccc(Cl)c4F)c[n+]3[O-])c2)cc1C(F)F (single isomer, unassigned) [Example P334]
24 | 3.9 | O=C1CCCN1CC(c1ccc(-c2c(-n3cnnn3)ccc(Cl)c2F)c[n+]1[O-])n1cc(-c2ccncc2)cn1 (centres unmarked) [Example P242]
25 | 7.9 | [O-][n+]1cc(-c2c(-n3cnnn3)ccc(Cl)c2F)ccc1C(CCOC(F)F)n1cc(-c2c(Cl)cnn2C(F)F)cn1 (centres unmarked) [Example P574]

Row | IC50 [nM] | Structure (SMILES)
26 | 56 | CNc1ncc(-c2cnn([C@H](CCOC(F)F)c3ccc(-c4c(-n5cnnn5)ccc(Cl)c4F)c[n+]3[O-])c2)cn1 [Example P552]
27 | 19.2 | [2H]C([2H])([2H])C([2H])([2H])CC(c1ccc(-c2c(-n3cc(Cl)nn3)ccc(Cl)c2F)c[n+]1[O-])n1cc(-c2ccc(C(N)=O)c(F)c2)cn1 (centres unmarked) [Example P926]
28 | 32.9 | [O-][n+]1cc(-c2c(-n3cnnn3)ccc(Cl)c2F)ccc1[C@@H](Cc1ccc(C(F)(F)F)nc1)n1cc(-c2cncn2C(F)F)cn1 [Example P785]
29 | 39.6 | Cn1ncnc1-c1cnn([C@H](CCOC(F)F)c2ccc(-c3c(-n4cc(Cl)nn4)ccc(Cl)c3F)c[n+]2[O-])c1 [Example P722]
30 | 69.8 | N#Cc1cc(-c2cnn(C(CN3CCOC3=O)c3ccc(-c4c(-n5cnnn5)ccc(Cl)c4F)c[n+]3[O-])c2)ccn1 (single isomer, unassigned) [Example P439]
31 | 179 | [O-][n+]1cc(-c2c(-n3cnnn3)ccc(Cl)c2F)ccc1[C@H](Cn1cc(F)cn1)n1cc(-c2cncs2)cn1 [Example P493]
32 | 365 | O=C(O)c1ccc(-c2cnn(C(CC3CC3C(=O)N3CCC(c4ccccc4)C3)c3ccc(-c4c(-n5cnnn5)ccc(Cl)c4F)c[n+]3[O-])c2)cc1 (centres unmarked) [Example P175]
33 | 7.2 | [O-][n+]1cc(-c2c(-n3cnnn3)ccc(Cl)c2F)ccc1C(Cn1cc(F)c(COC(F)F)n1)n1cc(-c2ccnc(C(F)(F)F)c2)cn1 (single isomer, unassigned) [Example P570]
34 | 22.9 | COC(=O)N(C)CC(c1ccc(-c2c(-n3cnnn3)ccc(Cl)c2F)c[n+]1[O-])n1cc(-c2ccc(N)nc2F)cn1 (centres unmarked) [Example P482]
35 | 788 | NC(=O)c1scc(-c2cnn(C(CC3CC3)c3ccc(-c4c(-n5cnnn5)ccc(Cl)c4F)c[n+]3[O-])c2)c1F (single isomer, unassigned) [Example P954]
36 | 2.7 | NC(=O)c1ccc(-c2cnn(C(CN3CCCC3=O)c3ccc(-c4c(-n5cc(C(F)(F)F)nn5)ccc(Cl)c4F)c[n+]3[O-])c2)cc1F (single isomer, unassigned) [Example P937]
37 | 45.9 | [O-][n+]1cc(-c2cc(Cl)ccc2-n2cnnn2)ccc1C(Cc1ccc(Cl)cc1)n1cc(-c2ccnc(C(F)(F)F)c2)cn1 (centres unmarked) [Example P250]
38 | 7.3 | O=C(O)c1ccc(-c2cnn(C(CCOC(F)F)c3ccc(-c4c(-n5cc(Cl)nn5)ccc(Cl)c4F)c[n+]3[O-])c2)cc1F (single isomer, unassigned) [Example P881]
39 | 42.3 | Cn1nncc1-c1cnn([C@H](Cc2ccc(C(F)(F)F)nc2)c2ccc(-c3c(-n4cc(Cl)nn4)ccc(Cl)c3F)c[n+]2[O-])c1 [Example P772]
40 | 80 | O=C(O)c1ccc(-c2cnn(C(CC(=O)N3CCNCC3)c3ccc(-c4cc(Cl)ccc4-n4cnnn4)c[n+]3[O-])c2)cc1 (centres unmarked) [Example P90]
41 | 8.1 | [O-][n+]1cc(-c2c(-n3cnnn3)ccc(Cl)c2F)ccc1C(Cn1cc(F)cn1)n1cc(-c2ccncc2)cn1 (centres unmarked) [Example P276]
42 | 39.8 | [2H]C([2H])([2H])OCCC(c1ccc(-c2c(-n3cnnn3)ccc(Cl)c2F)c[n+]1[O-])n1cc(-c2ccnc(C(F)(F)F)c2)cn1 (single isomer, unassigned) [Example P386]
43 | 621 | Cc1nccc(-c2cnn(C(CC3CC3)c3ccc(-c4c(-n5cnnn5)ccc(Cl)c4F)c[n+]3[O-])c2)n1 (centres unmarked) [Example P368]
44 | 77.1 | Nc1ccc(-c2cnn(C(Cn3cc(F)cn3)c3ccc(-c4c(-n5cnnn5)ccc(Cl)c4F)c[n+]3[O-])c2)c(F)n1 (single isomer, unassigned) [Example P417]
45 | 32.3 | CN(CC(c1ccc(-c2c(-n3cnnn3)ccc(Cl)c2F)c[n+]1[O-])n1cc(-c2ccnc(C(F)(F)F)c2)cn1)C(=O)c1ccccc1 (single isomer, unassigned) [Example P409]
46 | 10.9 | COC(=O)Nc1ccc(-c2cnn(C(Cn3cccn3)c3ccc(-c4c(-n5cnnn5)ccc(Cl)c4F)c[n+]3[O-])c2)cc1 (single isomer, unassigned) [Example P273]
47 | 13.4 | [O-][n+]1cc(-c2c(-n3cnnn3)ccc(Cl)c2F)ccc1C(Cn1cc(F)cn1)n1cc(-c2ccnc(F)c2)cn1 (centres unmarked) [Example P352]
48 | 895 | [O-][n+]1cc(-c2cc(Cl)ccc2-n2cnnn2)ccc1C(Cc1ccc(Cl)cc1)n1cc(-c2cc(Cl)ccc2-n2cnnn2)cn1 (centres unmarked) [Example P152]
49 | 268 | [O-][n+]1cc(-c2c(-n3cnnn3)ccc(Cl)c2F)ccc1C(Cn1ccc(-c2ccccc2)n1)n1cc(-c2ccncc2)cn1 (centres unmarked) [Example P270]
50 | 3.2 | COC(=O)Nc1ccc(-c2cnn(C(Cn3cccn3)c3ccc(-c4c(-n5cnnn5)ccc(Cl)c4F)c[n+]3[O-])c2)cc1 (single isomer, unassigned) [Example P272]
